{"source": "paper PMC9697135", "about": "(International Journal of Molecular Sciences, 2022)", "key": {"human nSMase2": {"target": "human nSMase2", "details": "cited from earlier work; for IC50: nSMase2 inhibition"}, "in vitro [1]": {"assay": "in vitro", "details": "human"}, "ZIKV": {"test_system": "ZIKV", "assay": "Antiviral activity, virus yield by plaque assay (ZIKV)", "format": "cell-based", "details": "Zika virus, 24 h, read-out: EC50 ZIKV"}, "WNV": {"test_system": "WNV", "assay": "Antiviral activity, virus yield by plaque assay (WNV)", "format": "cell-based", "details": "West Nile virus, MOI 1 PFU/cell, virus yield at 24 h post-infection"}, "in vitro [2]": {"assay": "in vitro", "details": "African green monkey"}}, "note": "Like-named read-outs stand apart in the source and are kept apart here."}
{"smiles": "COc1cc(O)c(C(=O)O)c(-c2cc(O)c(O)cc2C)c1", "note": "[Altenusin]", "values": [{"measurement": "Ki", "setting": "human nSMase2; non-competitive inhibitor of human nSMase2", "result": 20, "unit": "µM"}]}
{"smiles": "COc1cc(-c2nc(-c3cccs3)c(-c3ccccc3)[nH]2)cc(OC)c1O", "note": "[DPTIP]", "values": [{"measurement": "CC50", "setting": "in vitro [1]", "result": 15.1, "unit": "µM"}, {"measurement": "EC50", "setting": "ZIKV; HeLa", "result": 1.84, "unit": "µM"}, {"measurement": "EC50", "setting": "ZIKV; Vero", "result": 1.56, "unit": "µM"}, {"measurement": "EC50", "setting": "WNV; HeLa cells", "result": 2.81, "unit": "µM"}, {"measurement": "EC50", "setting": "WNV; Vero cells", "result": 0.26, "unit": "µM"}, {"measurement": "CC50", "setting": "in vitro [2]", "result": 54.8, "unit": "µM"}]}
{"smiles": "COc1cc(-c2nc(-c3cccs3)c(-c3ccccc3)[nH]2)cc(OC)c1OC", "note": "[compound 8]", "values": [{"measurement": "nSMase2 inhibitory activity (in words)", "setting": "human nSMase2; SAR of DPTIP derivatives", "result": "completely inactive"}, {"measurement": "IC50", "setting": "human nSMase2; SAR of DPTIP derivatives", "result": "> 100", "unit": "µM"}]}
{"smiles": "COc1cc(-c2nc(-c3cccs3)c(-c3ccccc3)n2C)cc(OC)c1O", "note": "[compound 9]", "values": [{"measurement": "IC50", "setting": "human nSMase2; SAR of DPTIP derivatives", "result": 40, "unit": "µM"}]}
{"smiles": "Oc1c(OC2CCCC2)cc(-c2nc(-c3cccs3)c(-c3ccccc3)[nH]2)cc1OC1CCCC1", "note": "[compound 10]", "values": [{"measurement": "IC50", "setting": "human nSMase2; SAR of DPTIP derivatives", "result": 0.12, "unit": "µM"}]}
{"smiles": "CC(C)(C)Oc1cc(-c2nc(-c3cccs3)c(-c3ccccc3)[nH]2)cc(OC(C)(C)C)c1O", "note": "[compound 11]", "values": [{"measurement": "IC50", "setting": "human nSMase2; SAR of DPTIP derivatives", "result": 0.52, "unit": "µM"}]}
